The nature of series [1]: Cytotoxicity against human C-28/I2 cells. The class given is toxicity, cell-based.
Series [2] concerns A-375. The series is described as follows: Antiproliferative activity against human A-375 cells assessed as inhibition of cell growth measured after 72 hrs by CCK8 assay. The class given is functional, cell-based. Conditions: A-375, 72 h. Background: Formazan colour is commonly taken as a measure of viable cells.
For series [3], the system named is SK-MEL-2. As to the kind of experiment: Antiproliferative activity against human SK-MEL-2 cells assessed as inhibition of cell growth. Format: functional, cell-based.
In series [4] the test system is MCF7. The series is described as follows: Antiproliferative activity against human MCF7 cells assessed as inhibition of cell growth measured after 72 hrs by CCK8 assay. Format: functional, cell-based. Conditions: MCF7, 72 h.
In series [5] the test system is A-375. As to the kind of experiment: Cytotoxicity against human A-375 cells assessed as inhibition of cell growth. The class given is functional, cell-based.
Series [6] has as its target T1, Mitogen-activated protein kinase; ERK1/ERK2 (Homo sapiens) (UniProt P27361+P28482). The series is described as follows: Inhibition of intracellular ERK1/2 phosphorylation in human A-375 cells at 5 uM by Western blot analysis. The class given is cell-based. For orientation: In western blotting, separated proteins are transferred to a membrane and probed.
Series [7] deals with SK-HEP1. As to the kind of experiment: Induction of apoptosis in human SK-HEP1 cells assessed as late apoptotic cells at 1.25 to 5 uM measured after 48 hrs by AnnexinV-FITC/propidium iodide staining based flow cytometry analysis (reference value: 0.36 %). Format: functional. Conditions: dose 1.25-5 µM. In general terms: A flow cytometer gives signals particle by particle.
A short description of series [8]: Cytotoxicity against human C-28/I2 cells measured after 72 hrs by CCK8 assay. The class given is toxicity, cell-based.
The subject of series [9] is A-375. As to the kind of experiment: Induction of apoptosis in human A-375 cells assessed as late apoptotic cells at 1.25 to 5 uM measured after 48 hrs by AnnexinV-FITC/propidium iodide staining based flow cytometry analysis (reference value: 1.61 %). Conditions: dose 1.25-5 µM. Format: functional.
For series [10], the system named is SK-HEP1. As to the kind of experiment: Induction of apoptosis in human SK-HEP1 cells assessed as downregulation of ERK2 expression at 2.5 uM measured after 48 hrs by fluorescent quantitative PCR analysis relative to control. The class given is functional.
Series [11] concerns the target T1, Mitogen-activated protein kinase; ERK1/ERK2 (Homo sapiens). The series is described as follows: Inhibition of intracellular ERK1/2 phosphorylation in human SK-HEP1 cells at 5 uM by Western blot analysis. Format: cell-based.
Series [12] relates to SK-HEP1. The series is described as follows: Induction of apoptosis in human SK-HEP1 cells assessed as downregulation of B-Raf protein expression by Western blot analysis. Format: functional, cell-based. Conditions: dose 1-5 µM, DDE = dose-dependent effect.
The subject of series [13] is SK-HEP1. The series is described as follows: Induction of cell cycle arrest in human SK-HEP1 cells assessed as accumulation of cells at G2/M phase at 1.25 uM measured after 24 hrs by propidium iodide staining based flow cytometric analysis (reference value: 18.32 %). Format: functional.
Series [14] deals with SK-HEP1. As to the kind of experiment: Antiproliferative activity against human SK-HEP1 cells cultured as 3D spheroids assessed as appearance of flattened spheroids at 10 uM measured after 48 hrs by fluorescence microscopic analysis. The class given is functional, cell-based.
Series [15] relates to SK-HEP1. As to the kind of experiment: Induction of cell cycle arrest in human SK-HEP1 cells assessed as accumulation of cells at G2/M phase at 5 uM measured after 24 hrs by propidium iodide staining based flow cytometric analysis (reference value: 18.32 %). Format: functional.
Series [16] relates to SK-HEP1. As to the kind of experiment: Induction of cell cycle arrest in human SK-HEP1 cells assessed as accumulation of cells at G0/G1 phase at 2.5 uM measured after 24 hrs by propidium iodide staining based flow cytometric analysis (reference value: 48.40 %). Format: functional.
The subject of series [17] is SK-HEP1. The series is described as follows: Inhibition of MEK1/2 phosphorylation in human SK-HEP1 cells by Western blot analysis. The class given is cell-based. Conditions: dose 1-5 µM, DDE = dose-dependent effect.
The subject of series [18] is SK-HEP1. The series is described as follows: Induction of cell cycle arrest in human SK-HEP1 cells assessed as accumulation of cells at S phase at 5 uM measured after 24 hrs by propidium iodide staining based flow cytometric analysis (reference value: 33.08 %). The class given is functional.
Series [19] concerns SK-HEP1. The series is described as follows: Induction of ROS production in human SK-HEP1 cells at 1 to 2 uM measured after 24 hrs by DCFH-DA staining based confocal microscopic and flow cytometry analysis. The class given is functional, cell-based. Conditions: dose 1-2 µM.
Series [20] relates to SK-HEP1. As to the kind of experiment: Induction of apoptosis in human SK-HEP1 cells assessed as downregulation of ERK1 expression at 2.5 uM measured after 48 hrs by fluorescent quantitative PCR analysis relative to control. The class given is functional.
In series [21] the test system is SK-HEP1. The series is described as follows: Inhibition of colony formation in human SK-HEP1 cells assessed as reduction in number of colonies at 0.2 uM measured after 7 days by crystal violet staining based assay. Conditions: time 7.0 day. The class given is functional, cell-based.
Series [22] deals with SK-HEP1. The series is described as follows: Induction of apoptosis in human SK-HEP1 cells assessed as upregulation of activated caspase-9 protein expression at 1 to 2 uM by Western blot analysis. Format: functional, cell-based. Conditions: dose 1-2 µM.
For series [23], the system named is SK-HEP1. The series is described as follows: Induction of apoptosis in human SK-HEP1 cells assessed as upregulation of activated caspase-3 protein expression at 1 to 2 uM by Western blot analysis. The class given is functional, cell-based. Conditions: dose 1-2 µM.
Series [24] deals with SK-HEP1. As to the kind of experiment: Induction of cell cycle arrest in human SK-HEP1 cells assessed as accumulation of cells at G2/M phase at 2.5 uM measured after 24 hrs by propidium iodide staining based flow cytometric analysis (reference value: 18.32 %). The class given is functional.
Series [25] concerns SK-HEP1. As to the kind of experiment: Induction of cell cycle arrest in human SK-HEP1 cells assessed as accumulation of cells at S phase at 1.25 uM measured after 24 hrs by propidium iodide staining based flow cytometric analysis (reference value: 33.08 %). Format: functional.
For series [26], the system named is SK-HEP1. The series is described as follows: Inhibition of colony formation in human SK-HEP1 cells assessed as reduction in number of colonies at 2 uM measured after 7 days by crystal violet staining based assay. The class given is functional. Conditions: SK-HEP1, 168 h, time 7 day.
Series [27] relates to SK-MEL-2. The series is described as follows: Antiproliferative activity against human SK-MEL-2 cells assessed as inhibition of cell growth measured after 72 hrs by CCK8 assay. Conditions: SK-MEL-2, 72 h. The class given is functional, cell-based.
Series [28] has as its system SK-HEP1. As to the kind of experiment: Induction of cell cycle arrest in human SK-HEP1 cells assessed as accumulation of cells at G0/G1 phase at 1.25 uM measured after 24 hrs by propidium iodide staining based flow cytometric analysis (reference value: 48.40 %). The class given is functional.
The test system of series [29] is SK-HEP1. As to the kind of experiment: Induction of apoptosis in human SK-HEP1 cells assessed as downregulation of ERK1/2 protein expression by Western blot analysis. The class given is functional, cell-based. Conditions: dose 1-5 µM, DDE = dose-dependent effect.
The test system of series [30] is SK-HEP1. The series is described as follows: Antiproliferative activity against human SK-HEP1 cells assessed as inhibition of cell growth measured after 72 hrs by CCK8 assay. Format: functional, cell-based. Conditions: SK-HEP1, 72 h.
Series [31] concerns SK-HEP1. The series is described as follows: Induction of cell cycle arrest in human SK-HEP1 cells assessed as accumulation of cells at G0/G1 phase at 5 uM measured after 24 hrs by propidium iodide staining based flow cytometric analysis (reference value: 48.40 %). The class given is functional.
The test system of series [32] is SK-HEP1. The series is described as follows: Antiproliferative activity against human SK-HEP1 cells cultured as 3D spheroids assessed as appearance of crumbled spheroids at 10 uM measured after 120 hrs by fluorescence microscopic analysis. The class given is functional, cell-based.
Series [33] concerns the target T1, Mitogen-activated protein kinase; ERK1/ERK2 (Homo sapiens). As to the kind of experiment: Inhibition of ERK1/2 phosphorylation in human SK-HEP1 cells by Western blot analysis. Format: cell-based. Conditions: dose 1-5 µM, DDE = dose-dependent effect.
In series [34] the test system is SK-HEP1. The series is described as follows: Antiproliferative activity against human SK-HEP1 cells cultured as 3D spheroids assessed as appearance of collapsed spheroids at 10 uM measured after 96 hrs by fluorescence microscopic analysis. Format: functional, cell-based.
In series [35] the test system is SK-HEP1. The series is described as follows: Inhibition of cell migration in human SK-HEP1 cells at 2.5 uM measured after 12 to 24 hrs by inverted microscopy based wound healing assay. The class given is functional. Conditions: time 12-24 hrs.
In series [36] the test system is SK-HEP1. As to the kind of experiment: Induction of cell cycle arrest in human SK-HEP1 cells assessed as accumulation of cells at S phase at 2.5 uM measured after 24 hrs by propidium iodide staining based flow cytometric analysis (reference value: 33.08 %). Format: functional.

This is an account of results in ChEMBL document CHEMBL5113479, “Pyrido[2,3-d]pyrimidine-2,4(1H,3H)-dione derivatives as RAF-MEK-ERK pathway signaling pathway blockers: Synthesis, cytotoxic activity, mechanistic investigation and structure-activity relationships” (Eur J Med Chem, 2022).

pIC50: −log10 of the molar value. Calls of active or inactive are those of the source. The calls are words filed in the database; no cut-off is given here.

T1 sequence (P27361 whole entry, looked up): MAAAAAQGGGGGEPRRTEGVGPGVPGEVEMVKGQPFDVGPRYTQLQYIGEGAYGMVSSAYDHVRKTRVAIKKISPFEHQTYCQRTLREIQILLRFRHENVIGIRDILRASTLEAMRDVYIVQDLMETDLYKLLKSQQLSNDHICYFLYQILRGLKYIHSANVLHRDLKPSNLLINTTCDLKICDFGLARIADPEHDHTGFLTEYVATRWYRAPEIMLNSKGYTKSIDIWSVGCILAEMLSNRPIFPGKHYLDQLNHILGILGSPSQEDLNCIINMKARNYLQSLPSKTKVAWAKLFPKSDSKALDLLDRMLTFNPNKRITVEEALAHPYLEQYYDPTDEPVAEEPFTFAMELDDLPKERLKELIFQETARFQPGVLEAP
T1 sequence (P28482 whole entry, looked up): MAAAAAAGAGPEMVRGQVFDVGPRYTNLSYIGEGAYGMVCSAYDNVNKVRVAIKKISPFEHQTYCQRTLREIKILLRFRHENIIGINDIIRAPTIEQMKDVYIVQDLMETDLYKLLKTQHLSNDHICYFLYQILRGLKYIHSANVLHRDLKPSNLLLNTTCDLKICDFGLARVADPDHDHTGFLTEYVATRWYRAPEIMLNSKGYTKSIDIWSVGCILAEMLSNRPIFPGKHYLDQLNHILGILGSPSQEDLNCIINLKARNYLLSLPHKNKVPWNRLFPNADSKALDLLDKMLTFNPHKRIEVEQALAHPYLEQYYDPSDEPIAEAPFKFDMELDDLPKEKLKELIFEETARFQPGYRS

`O=c1[nH]c2c(c(O)c1Cc1ccccc1)c(=O)n(-c1ccc(OC(F)(F)F)cc1)c(=O)n2-c1ccc(OC(F)(F)F)cc1` registered a CC50 in series [1] of 35.9 µM. Besides, the pIC50 in series [2] is 4.61; in [3], 4.86; in [4], 5.00; in [5] it was 4.89.
In the case of `CN1CCN(c2cc(NCC(=O)Nc3cccc(Cl)c3)c3c(=O)n(C)c(=O)n(C)c3n2)CC1`, the inhibition result in series [6], in series [11], in [21] and in series [35] was “Active” throughout. Besides, the pIC50 in [2] is 5.28; in [4], 5.50; in [27], 5.32; in series [30] it was 5.69. Further, the Activity in series [7] was 42.4%; in series [9], 32.6%; in series [10] it was 60%; in series [12], “Dde”; in series [13] it was 21.31%; in series [15], 23.92%. Also, the Activity in series [16] is given as 45.09%; in series [18], 31.23%; in series [20] it was 70%; in series [24], 19.98%; in series [25], 34.59%; in series [28], 44.1%. Further, the Activity entry in series [29] is “Dde”; in series [31], 44.85%; in [36], 34.93%. Also, the CC50 at 72 h in [8] was > 50 µM. In addition, the outcome in series [14], in series [19], in series [22], in series [23], in series [32] and in [34] was Active. Also, the inhibition result in [17] and in series [33] was “Dde” each time. Moreover, the inhibition at 2 µM in series [26] came to 100%.

One may read the CC50 as the concentration giving 50% cytotoxicity. Low readings indicate harm at low concentration, high ones better tolerance by the cells. By pIC50 is commonly meant the IC50 on a negative log10 scale, so that one unit is a factor of ten. Broadly, the inhibition is the change of the read-out against control, counted positive when it falls.
